# Measured values from article PMC8736263 (European journal of pharmacology, 2021).
# Key:
# [1] = biological target: T1, sigma-2 receptor/transmembrane protein 97 (TMEM97) (Rattus norvegicus, UniProt Q5U3Y7); experiment: radioligand competition with [3H]DTG plus […]; assay type: binding
# T1 sequence (Q5U3Y7 1-176): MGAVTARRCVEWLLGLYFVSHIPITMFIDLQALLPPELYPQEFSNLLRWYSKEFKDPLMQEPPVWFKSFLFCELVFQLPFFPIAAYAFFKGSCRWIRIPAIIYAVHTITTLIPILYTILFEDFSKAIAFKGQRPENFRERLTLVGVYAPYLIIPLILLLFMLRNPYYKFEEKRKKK
# [2] = biological target: sigma-1 receptor (Rattus norvegicus, UniProt Q9R0C9); experiment: radioligand competition with [3H]-; assay type: binding
# Sequence of sigma-1 receptor (Q9R0C9 whole entry): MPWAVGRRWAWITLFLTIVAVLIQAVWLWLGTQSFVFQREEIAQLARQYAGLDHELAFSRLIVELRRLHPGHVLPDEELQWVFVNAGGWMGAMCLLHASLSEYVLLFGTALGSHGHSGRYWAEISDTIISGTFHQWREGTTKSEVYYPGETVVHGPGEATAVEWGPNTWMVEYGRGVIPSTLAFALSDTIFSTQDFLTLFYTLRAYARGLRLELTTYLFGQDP
structure (smiles),measurement,setting,value
"O=c1oc2cc(NC(=S)Nc3ccc4c(c3)oc(=O)n4CCCCN3CCN(c4ccc(F)cc4)CC3)ccc2n1CCCCN1CCN(c2ccc(F)cc2)CC1 [MAM03055A, 1,3-bis(3-(4-(4-(4-fluorophenyl)piperazin-1-yl)butyl)-2-oxo-2,3-dihydrobenzo[d]oxazol-6-yl)thiourea]",Ki,[1],55.9 nM
same,Ki,[2],3370 nM
